Experimental data reported in PubChem BioAssay (NCI).
Several values for one entry are separate records, joined by “and”; a condition that tells them apart may be missing. Equal values may be shown once.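 Values below derive from 48-hour exposures of cells grown in 96-well plates, with endpoints linearly interpolated between the two concentrations bracketing the appropriate inhibition level. GI50: concentration for 50% inhibition of growth. TGI marks complete inhibition of growth.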

How the values were obtained:
Test in all cases: NCI tumour cell line growth inhibition, 48 h
NCI-H522 lung = system: NCI-H522 lung
SF-268 CNS = system: SF-268 CNS
EKVX NSCLC = system: EKVX NSCLC
OVCAR-8 ovarian = system: OVCAR-8 ovarian
SK-MEL-5 melanoma = system: SK-MEL-5 melanoma
HT29 colon = system: HT29 colon
KM12 colon = system: KM12 colon
KM20L2 colon = system: KM20L2 colon
LOX IMVI melanoma = system: LOX IMVI melanoma
MALME-3M melanoma = system: MALME-3M melanoma

`COC1=CC23C=CC1[C@@H](c1ccccc1)C2=C(C)C(=O)N3C(=O)NC1CCCCC1` (stereo not given in full) was tested, and the TGI (NCI-H522 lung) was 41.3 µM, the TGI (SF-268 CNS) was 33.6 µM and the TGI (EKVX NSCLC) was over 100 µM. It also gave a TGI (OVCAR-8 ovarian) of 64.6 µM, a TGI (SK-MEL-5 melanoma) of 29.2 µM and a TGI (HT29 colon) of 41.1 µM. For the same compound, the TGI (KM12 colon) was over 100 µM, the TGI (KM20L2 colon) was 50.7 µM and the TGI (LOX IMVI melanoma) was 31.2 µM.
`c1cnc2c(c1)-n1cccc1C1(CCSCC1)NN2` showed a TGI (MALME-3M melanoma) of over 100 µM, a TGI (NCI-H522 lung) of over 100 µM and a TGI (SF-268 CNS) of over 100 µM. It also gave a TGI (EKVX NSCLC) of over 100 µM, a TGI (OVCAR-8 ovarian) of over 100 µM and a TGI (SK-MEL-5 melanoma) of over 100 µM. It also gave a TGI (HT29 colon) of over 100 µM, a TGI (KM12 colon) of over 100 µM and a TGI (LOX IMVI melanoma) of over 100 µM.
Work on `O=[N+]([O-])c1c(/C=N/Nc2ccccc2)oc(-c2ccc3c(c2)OCO3)c1-c1ccc2c(c1)OCO2` yielded a TGI (MALME-3M melanoma) of over 100 µM, a TGI (NCI-H522 lung) of over 100 µM and a TGI (SF-268 CNS) of over 100 µM. The TGI (EKVX NSCLC) was over 100 µM, the TGI (OVCAR-8 ovarian) was over 100 µM and the TGI (HT29 colon) was over 100 µM. For the same compound, the TGI (KM20L2 colon) was 37.5 µM and the TGI (LOX IMVI melanoma) was 18.1 µM.
In the case of `CC(C)c1ccc(Cc2cnc(NC(=O)c3cc(Br)cs3)s2)cc1`, the GI50 (MALME-3M melanoma) was 3.44 µM, the TGI (MALME-3M melanoma) was over 100 µM and the GI50 (NCI-H522 lung) was 1.48 µM. It also gave a TGI (NCI-H522 lung) of 5.76 µM, a GI50 (SF-268 CNS) of 5.89 µM and a TGI (SF-268 CNS) of over 100 µM. The GI50 (EKVX NSCLC) was 4 µM, the TGI (EKVX NSCLC) was over 100 µM and the GI50 (OVCAR-8 ovarian) was 4.4 µM. For the same compound, the TGI (OVCAR-8 ovarian) was over 100 µM, the GI50 (SK-MEL-5 melanoma) was 1.9 µM and the TGI (SK-MEL-5 melanoma) was over 100 µM. For the same compound, the GI50 (HT29 colon) was 4.5 µM, the TGI (HT29 colon) was over 100 µM and the GI50 (KM12 colon) was 2.12 µM. It also gave a TGI (KM12 colon) of over 100 µM, a GI50 (LOX IMVI melanoma) of 5.35 µM and a TGI (LOX IMVI melanoma) of over 100 µM.
Work on `CC(=O)Oc1cc(C)ccc1[C@]1(C)CC[C@H](C)/C1=C\Br` yielded a GI50 (MALME-3M melanoma) of 2.95 µM, a TGI (MALME-3M melanoma) of 10.2 µM and a GI50 (NCI-H522 lung) of 5.28 µM. It also gave a TGI (NCI-H522 lung) of 22.7 µM, a GI50 (SF-268 CNS) of 4.76 µM and a TGI (SF-268 CNS) of 17.9 µM. It also gave a GI50 (EKVX NSCLC) of 6.67 µM, a TGI (EKVX NSCLC) of 18.5 µM and a GI50 (OVCAR-8 ovarian) of 5.05 µM. For the same compound, the TGI (OVCAR-8 ovarian) was 21 µM, the GI50 (SK-MEL-5 melanoma) was 3.32 µM and the TGI (SK-MEL-5 melanoma) was 11.5 µM. It also gave a GI50 (HT29 colon) of 2.45 µM, a TGI (HT29 colon) of 5.06 µM and a GI50 (KM12 colon) of 2.92 µM. It also gave a TGI (KM12 colon) of 12 µM, a GI50 (LOX IMVI melanoma) of 4.77 µM and a TGI (LOX IMVI melanoma) of 17.1 µM.
For `O=C1C=C(c2c(O)ccc3ccccc23)c2ccccc2C1=O`, the TGI (MALME-3M melanoma) was 26.7 µM, the TGI (SF-268 CNS) was 17.2 µM and the TGI (EKVX NSCLC) was 11.9 µM. For the same compound, the TGI (OVCAR-8 ovarian) was 5.3 µM, the TGI (SK-MEL-5 melanoma) was 7.42 µM and the TGI (HT29 colon) was 27.2 µM. For the same compound, the TGI (KM12 colon) was 11.8 µM, the TGI (KM20L2 colon) was 32.1 µM and the TGI (LOX IMVI melanoma) was 4.42 µM.
Compound `CCOc1ccc(/C=C/C(=O)c2ccccc2)cc1` has a GI50 (MALME-3M melanoma) of 17.9 µM, a TGI (MALME-3M melanoma) of 35.2 µM and a GI50 (NCI-H522 lung) of 15.4 µM. It also gave a TGI (NCI-H522 lung) of 34.9 µM, a GI50 (SF-268 CNS) of 18.7 µM and a TGI (SF-268 CNS) of 36.9 µM. For the same compound, the GI50 (EKVX NSCLC) was 16 µM, the TGI (EKVX NSCLC) was 30.6 µM and the GI50 (OVCAR-8 ovarian) was 14.8 µM. It also gave a TGI (OVCAR-8 ovarian) of 34.6 µM, a GI50 (SK-MEL-5 melanoma) of 17.1 µM and a TGI (SK-MEL-5 melanoma) of 31.2 µM. For the same compound, the GI50 (HT29 colon) was 13.8 µM, the TGI (HT29 colon) was 29.6 µM and the GI50 (KM12 colon) was 10.7 µM. It also gave a TGI (KM12 colon) of 23.6 µM, a GI50 (LOX IMVI melanoma) of 11.9 µM and a TGI (LOX IMVI melanoma) of 26.5 µM.
For `COc1ccc2c(c1)C(=O)CC(N)C2` (stereo not given), the TGI (MALME-3M melanoma) was over 100 µM, the TGI (NCI-H522 lung) was over 100 µM and the TGI (SF-268 CNS) was over 100 µM. For the same compound, the TGI (EKVX NSCLC) was over 100 µM, the TGI (OVCAR-8 ovarian) was over 100 µM and the TGI (SK-MEL-5 melanoma) was over 100 µM. For the same compound, the TGI (HT29 colon) was over 100 µM, the TGI (KM12 colon) was over 100 µM and the TGI (LOX IMVI melanoma) was over 100 µM.
`O=c1ccn(C2OC(CO)C(O)C2O)c(=O)[nH]1` (stereo not given) was tested, and the GI50 (MALME-3M melanoma) was 740 µM and > 10 µM, the TGI (MALME-3M melanoma) was over 1000 µM and the TGI (NCI-H522 lung) was over 1000 µM. It also gave a GI50 (SF-268 CNS) of over 1000 µM, a TGI (SF-268 CNS) of over 1000 µM and a GI50 (EKVX NSCLC) of over 1000 µM. For the same compound, the TGI (EKVX NSCLC) was over 1000 µM, the GI50 (OVCAR-8 ovarian) was over 1000 µM and the TGI (OVCAR-8 ovarian) was over 1000 µM. The GI50 (SK-MEL-5 melanoma) was over 1000 µM, the TGI (SK-MEL-5 melanoma) was over 1000 µM and the GI50 (HT29 colon) was over 1000 µM. For the same compound, the TGI (HT29 colon) was over 1000 µM, the GI50 (KM12 colon) was over 1000 µM and the TGI (KM12 colon) was over 1000 µM. It also gave a GI50 (LOX IMVI melanoma) of over 1000 µM and a TGI (LOX IMVI melanoma) of over 1000 µM.
